Active and inactive are the calls of the source. No cut-off for these calls is given here. Where a SMILES comes first, the peptide text is derived from it.

Test [1] addresses T1, Neuronal acetylcholine receptor subunit alpha-7 (Homo sapiens, UniProt P36544). Description: Inhibition of alpha7 (unknown origin) nAChR.
For test [2], the target named is T2, Neuronal acetylcholine receptor; alpha9/alpha10 (Homo sapiens, UniProt Q9GZZ6+Q9UGM1). Description: Inhibition of alpha9alpha10 (unknown origin) nAChR. Type of test: protein-complex assay.
Test [3] addresses Neuronal acetylcholine receptor; alpha4/beta4 (Rattus norvegicus) (UniProt P09483+P12392). Description: Inhibition of rat alpha4beta4 nAChR expressed in Xenopus laevis oocytes assessed as inhibition of ACh-induced current at 10 uM after 2 to 4 days by voltage clamp electrophysiology method. Type of test: cell-based.
The target of test [4] is Neuronal acetylcholine receptor subunit alpha-7 (Rattus norvegicus) (UniProt Q05941). Description: Inhibition of rat alpha7 nAChR expressed in Xenopus laevis assessed as inhibition of ACh-induced current at 10 uM after 2 to 4 days by voltage clamp electrophysiology method.
Test [5] addresses Neuronal acetylcholine receptor; alpha3/beta4 (Rattus norvegicus) (UniProt P04757+P12392). Description: Inhibition of rat alpha3beta4 nAChR expressed in Xenopus laevis oocytes assessed as inhibition of ACh-induced current at 1 uM after 2 to 4 days by voltage clamp electrophysiology method. The test is classed as cell-based.
For test [6], the target named is Neuronal acetylcholine receptor; alpha3/beta2 (Rattus norvegicus) (UniProt P04757+P12390). Description: Inhibition of rat alpha3beta2 nAChR expressed in Xenopus laevis oocytes assessed as inhibition of ACh-induced current at 10 uM after 2 to 4 days by voltage clamp electrophysiology method. The test is classed as cell-based.
In test [7] the target is Nicotinic acetylcholine receptor alpha9/alpha10 (Rattus norvegicus) (UniProt P43144+Q9JLB5). Description: Inhibition of rat alpha9alpha10 nAChR expressed in Xenopus laevis oocytes assessed as inhibition of ACh-induced current at 10 uM after 2 to 4 days by voltage clamp electrophysiology method. The test is classed as cell-based.
The target of test [8] is T2, Neuronal acetylcholine receptor; alpha9/alpha10. Description: Inhibition of human alpha9alpha10 nAChR. Type of test: protein-complex assay.
Test [9] deals with T1, Neuronal acetylcholine receptor subunit alpha-7. Description: Inhibition of human alpha7 nAChR.
For test [10], the target named is T3, Neuronal acetylcholine receptor; alpha3/beta4 (Homo sapiens, UniProt P30926+P32297). Description: Inhibition of human alpha3beta4 nAChR. Type of test: protein-complex assay.
The target of test [11] is T4, Neuronal acetylcholine receptor; alpha3/beta2 (Homo sapiens, UniProt P17787+P32297). Description: Inhibition of human alpha3beta2 nAChR. The test is classed as protein-complex assay.
Test [12] deals with T1, Neuronal acetylcholine receptor subunit alpha-7. Description: Inhibition of alpha7 nAChR (unknown origin) expressed in Xenopus laevis oocytes at 1 uM by two-electrode voltage clamp method. Type of test: cell-based. (In general: In two-electrode clamp one electrode senses voltage and the other passes current.)
Test [13] shares this target. Description: Inhibition of alpha7 nAChR (unknown origin) expressed in Xenopus laevis oocytes by two-electrode voltage clamp method. The test is classed as cell-based.
Test [14] addresses T4, Neuronal acetylcholine receptor; alpha3/beta2. Description: Inhibition of alpha3beta2 nAChR (unknown origin) expressed in Xenopus laevis oocytes at 1uM by two-electrode voltage clamp method. The test is classed as cell-based.
For test [15], the target named is Neuronal acetylcholine receptor; alpha9/alpha10 (Homo sapiens) (UniProt Q9UGM1+Q9GZZ6). Description: Inhibition of alpha9alpha10 nAChR (unknown origin) expressed in Xenopus laevis oocytes at 1 uM by voltage clamp electrophysiology method. The test is classed as cell-based.
The target of test [16] is T4, Neuronal acetylcholine receptor; alpha3/beta2. Description: Inhibition of alpha3beta2 nAChR (unknown origin) expressed in Xenopus laevis oocytes by two-electrode voltage clamp method. The test is classed as cell-based.
Test [17] has as its target T3, Neuronal acetylcholine receptor; alpha3/beta4. Description: Inhibition of alpha3beta4 nAChR (unknown origin) expressed in Xenopus laevis oocytes at 1uM by two-electrode voltage clamp method. Type of test: cell-based.
Test [18] shares this target. Description: Inhibition of alpha3beta4 nAChR (unknown origin) expressed in Xenopus laevis oocytes by two-electrode voltage clamp method. The test is classed as cell-based.
For test [19], the target named is Nicotinic acetylcholine receptor alpha9/alpha10 (Rattus norvegicus, UniProt P43144+Q9JLB5). Description: Inhibition of recombinant rat alpha9alpha10 nAChR expressed in Xenopus laevis oocytes assessed as inhibition of ACh-induced current by voltage clamp electrophysiology method. Type of test: cell-based.
Test [20] addresses T5, Neuronal acetylcholine receptor; alpha3/beta4 (Rattus norvegicus, UniProt P04757+P12392). Description: Inhibition of rat alpha3beta4 nAChR expressed in Xenopus laevis oocytes assessed as inhibition of ACh-induced current after 2 to 4 days by voltage clamp electrophysiology method. Type of test: cell-based.
The target of test [21] is T6, Nicotinic acetylcholine receptor alpha6/alpha3/beta2/beta3 (Rattus norvegicus, UniProt P04757+P12390+P12391+P43143). Description: Inhibition of rat alpha6/alpha3beta2beta3 nAChR expressed in Xenopus laevis oocytes assessed as inhibition of ACh-induced current by voltage clamp electrophysiology method. Type of test: cell-based.
Test [22] concerns the target Neuronal acetylcholine receptor; alpha4/beta4 (Rattus norvegicus, UniProt P09483+P12392). Description: Inhibition of rat alpha4beta4 nAChR expressed in Xenopus oocytes assessed as inhibition of ACh-induced current by voltage clamp electrophysiology method. The test is classed as cell-based.
Test [23] addresses Neuronal acetylcholine receptor subunit alpha-7 (Rattus norvegicus, UniProt Q05941). Description: Inhibition of rat alpha7 nAChR expressed in Xenopus oocytes assessed as inhibition of ACh-induced current by voltage clamp electrophysiology method. Type of test: cell-based.
For test [24], the target named is T6, Nicotinic acetylcholine receptor alpha6/alpha3/beta2/beta3. Description: Inhibition of rat alpha6/alpha3beta2beta3 nAChR expressed in Xenopus oocytes assessed as inhibition of ACh-induced current by voltage clamp electrophysiology method. Type of test: cell-based.
Test [25] has as its target T5, Neuronal acetylcholine receptor; alpha3/beta4. Description: Inhibition of rat alpha3beta4 nAChR expressed in Xenopus oocytes assessed as inhibition of ACh-induced current by voltage clamp electrophysiology method. Type of test: cell-based.
Test [26] has as its target Neuronal acetylcholine receptor; alpha2/beta2 (Rattus norvegicus, UniProt P12389+P12390). Description: Inhibition of rat alpha2beta2 nAChR expressed in Xenopus oocytes assessed as inhibition of ACh-induced current by voltage clamp electrophysiology method. Type of test: cell-based.
Test [27] deals with Neuronal acetylcholine receptor; alpha2/beta4 (Rattus norvegicus, UniProt P12389+P12392). Description: Inhibition of rat alpha2beta4 nAChR expressed in Xenopus oocytes assessed as inhibition of ACh-induced current by voltage clamp electrophysiology method. Type of test: cell-based.
Test [28] has as its target Neuronal acetylcholine receptor; alpha3/beta2 (Rattus norvegicus, UniProt P04757+P12390). Description: Inhibition of rat alpha3beta2 nAChR expressed in Xenopus oocytes assessed as inhibition of ACh-induced current by voltage clamp electrophysiology method. The test is classed as cell-based.
For test [29], the target named is Nicotinic acetylcholine receptor alpha6/alpha3/beta4 (Rattus norvegicus, UniProt P04757+P12392+P43143). Description: Inhibition of rat alpha6/alpha3beta4 nAChR expressed in Xenopus oocytes assessed as inhibition of ACh-induced current by voltage clamp electrophysiology method. The test is classed as cell-based.

T1 sequence (P36544 whole entry): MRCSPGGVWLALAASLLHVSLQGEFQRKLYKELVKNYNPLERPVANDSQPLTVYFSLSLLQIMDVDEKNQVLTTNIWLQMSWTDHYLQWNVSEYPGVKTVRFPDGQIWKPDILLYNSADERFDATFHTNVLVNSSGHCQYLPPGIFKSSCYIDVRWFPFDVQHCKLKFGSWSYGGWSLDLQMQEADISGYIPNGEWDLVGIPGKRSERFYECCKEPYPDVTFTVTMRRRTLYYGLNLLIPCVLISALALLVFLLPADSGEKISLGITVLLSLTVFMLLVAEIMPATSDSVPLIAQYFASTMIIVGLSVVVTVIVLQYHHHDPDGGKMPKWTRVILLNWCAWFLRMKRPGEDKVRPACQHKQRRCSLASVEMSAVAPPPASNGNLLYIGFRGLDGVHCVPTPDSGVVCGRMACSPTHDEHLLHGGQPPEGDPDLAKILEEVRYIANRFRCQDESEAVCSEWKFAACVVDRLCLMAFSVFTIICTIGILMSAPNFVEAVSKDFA
T3 sequence (P30926 whole entry): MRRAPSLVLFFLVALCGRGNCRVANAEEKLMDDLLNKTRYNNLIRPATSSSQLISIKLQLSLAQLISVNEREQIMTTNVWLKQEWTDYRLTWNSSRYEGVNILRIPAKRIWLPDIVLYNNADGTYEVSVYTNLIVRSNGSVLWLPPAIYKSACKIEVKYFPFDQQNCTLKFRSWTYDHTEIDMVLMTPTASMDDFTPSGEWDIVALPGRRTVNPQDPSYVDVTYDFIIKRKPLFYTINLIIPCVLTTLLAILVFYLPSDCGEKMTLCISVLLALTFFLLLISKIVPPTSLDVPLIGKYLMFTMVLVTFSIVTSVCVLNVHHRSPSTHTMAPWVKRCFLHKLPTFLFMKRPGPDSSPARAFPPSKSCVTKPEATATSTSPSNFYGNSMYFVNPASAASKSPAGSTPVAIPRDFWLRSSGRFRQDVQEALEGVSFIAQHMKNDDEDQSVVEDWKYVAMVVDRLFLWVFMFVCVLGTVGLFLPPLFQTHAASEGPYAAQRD
T3 sequence (P32297 whole entry): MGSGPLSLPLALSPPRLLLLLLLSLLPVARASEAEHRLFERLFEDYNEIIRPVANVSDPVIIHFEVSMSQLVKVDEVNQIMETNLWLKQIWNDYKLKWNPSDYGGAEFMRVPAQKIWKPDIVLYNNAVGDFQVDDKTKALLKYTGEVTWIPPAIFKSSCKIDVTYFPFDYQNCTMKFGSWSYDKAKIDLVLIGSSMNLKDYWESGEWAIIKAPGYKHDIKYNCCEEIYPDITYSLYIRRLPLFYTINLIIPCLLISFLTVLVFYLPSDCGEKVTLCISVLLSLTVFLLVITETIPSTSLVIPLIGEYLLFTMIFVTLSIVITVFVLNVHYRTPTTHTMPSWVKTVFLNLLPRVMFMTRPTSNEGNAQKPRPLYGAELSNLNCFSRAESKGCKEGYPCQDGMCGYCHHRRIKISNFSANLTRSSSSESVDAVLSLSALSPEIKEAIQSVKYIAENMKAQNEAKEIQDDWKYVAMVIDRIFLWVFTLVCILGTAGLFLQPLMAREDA
T6 sequence (P04757 whole entry): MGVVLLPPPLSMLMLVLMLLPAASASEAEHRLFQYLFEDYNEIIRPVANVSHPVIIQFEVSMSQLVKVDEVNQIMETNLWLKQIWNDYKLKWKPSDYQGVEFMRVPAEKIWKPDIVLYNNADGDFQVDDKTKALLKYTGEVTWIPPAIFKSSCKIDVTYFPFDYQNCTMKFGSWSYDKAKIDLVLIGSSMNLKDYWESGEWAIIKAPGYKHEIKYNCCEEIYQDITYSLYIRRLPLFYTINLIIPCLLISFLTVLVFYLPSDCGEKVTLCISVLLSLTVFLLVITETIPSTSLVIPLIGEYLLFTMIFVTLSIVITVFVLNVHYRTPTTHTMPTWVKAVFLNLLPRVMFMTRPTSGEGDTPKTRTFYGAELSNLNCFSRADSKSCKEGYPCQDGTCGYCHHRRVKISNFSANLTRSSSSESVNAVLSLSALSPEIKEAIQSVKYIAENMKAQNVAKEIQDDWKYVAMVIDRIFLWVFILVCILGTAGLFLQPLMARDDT
T6 sequence (P12390 whole entry): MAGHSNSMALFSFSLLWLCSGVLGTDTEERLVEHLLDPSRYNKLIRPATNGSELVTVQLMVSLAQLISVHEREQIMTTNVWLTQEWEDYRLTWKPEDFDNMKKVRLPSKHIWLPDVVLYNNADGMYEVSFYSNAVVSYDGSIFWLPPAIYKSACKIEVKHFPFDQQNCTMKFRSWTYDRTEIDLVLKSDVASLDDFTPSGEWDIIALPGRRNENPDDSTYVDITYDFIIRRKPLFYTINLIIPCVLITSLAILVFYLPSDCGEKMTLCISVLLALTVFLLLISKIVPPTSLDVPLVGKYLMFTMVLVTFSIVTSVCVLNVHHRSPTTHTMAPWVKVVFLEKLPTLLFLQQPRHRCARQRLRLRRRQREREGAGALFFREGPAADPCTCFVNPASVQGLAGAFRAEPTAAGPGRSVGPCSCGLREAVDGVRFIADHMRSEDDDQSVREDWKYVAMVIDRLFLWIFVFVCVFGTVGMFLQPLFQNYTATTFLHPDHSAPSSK
T6 sequence (P12391 whole entry): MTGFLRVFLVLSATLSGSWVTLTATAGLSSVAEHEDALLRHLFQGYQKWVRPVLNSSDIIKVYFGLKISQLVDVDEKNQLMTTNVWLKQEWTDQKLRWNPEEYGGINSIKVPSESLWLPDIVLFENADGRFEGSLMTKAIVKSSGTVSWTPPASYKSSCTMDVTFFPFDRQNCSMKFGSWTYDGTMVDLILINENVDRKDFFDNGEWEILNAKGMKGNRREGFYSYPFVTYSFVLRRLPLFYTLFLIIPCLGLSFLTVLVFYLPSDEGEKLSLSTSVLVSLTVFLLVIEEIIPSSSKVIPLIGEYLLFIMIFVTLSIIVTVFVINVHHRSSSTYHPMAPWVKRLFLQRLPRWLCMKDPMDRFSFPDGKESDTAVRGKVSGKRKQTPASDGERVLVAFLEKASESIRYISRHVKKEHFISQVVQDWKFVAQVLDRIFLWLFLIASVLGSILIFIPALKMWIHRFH
T6 sequence (P43143 whole entry): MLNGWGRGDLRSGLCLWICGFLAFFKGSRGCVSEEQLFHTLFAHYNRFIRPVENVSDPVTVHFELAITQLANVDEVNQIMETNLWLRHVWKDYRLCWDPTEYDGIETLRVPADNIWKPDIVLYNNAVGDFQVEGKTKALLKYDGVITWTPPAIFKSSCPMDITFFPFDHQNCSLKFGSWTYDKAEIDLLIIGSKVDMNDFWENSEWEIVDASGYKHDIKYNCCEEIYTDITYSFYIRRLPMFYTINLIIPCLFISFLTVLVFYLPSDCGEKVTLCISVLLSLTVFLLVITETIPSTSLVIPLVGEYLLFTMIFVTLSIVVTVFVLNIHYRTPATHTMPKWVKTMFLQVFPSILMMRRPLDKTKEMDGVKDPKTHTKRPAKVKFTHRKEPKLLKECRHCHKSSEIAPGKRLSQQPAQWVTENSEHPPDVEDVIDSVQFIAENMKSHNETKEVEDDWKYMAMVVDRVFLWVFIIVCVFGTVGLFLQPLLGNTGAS
T5 sequence (P04757 whole entry): as the sequence (P04757 whole entry) above
T5 sequence (P12392 whole entry): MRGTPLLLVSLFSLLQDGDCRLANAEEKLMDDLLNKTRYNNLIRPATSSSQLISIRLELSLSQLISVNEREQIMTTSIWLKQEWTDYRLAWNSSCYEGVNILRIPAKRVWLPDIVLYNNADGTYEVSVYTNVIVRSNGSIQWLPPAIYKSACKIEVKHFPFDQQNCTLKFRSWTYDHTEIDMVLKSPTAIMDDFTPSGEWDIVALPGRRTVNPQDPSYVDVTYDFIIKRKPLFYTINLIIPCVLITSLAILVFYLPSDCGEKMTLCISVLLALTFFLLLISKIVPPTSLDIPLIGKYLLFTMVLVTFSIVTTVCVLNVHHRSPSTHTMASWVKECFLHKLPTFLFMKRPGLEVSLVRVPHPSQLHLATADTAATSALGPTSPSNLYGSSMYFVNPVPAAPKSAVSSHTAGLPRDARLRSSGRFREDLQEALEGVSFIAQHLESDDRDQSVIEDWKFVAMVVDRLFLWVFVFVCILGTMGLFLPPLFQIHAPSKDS
T2 sequence (Q9UGM1 whole entry): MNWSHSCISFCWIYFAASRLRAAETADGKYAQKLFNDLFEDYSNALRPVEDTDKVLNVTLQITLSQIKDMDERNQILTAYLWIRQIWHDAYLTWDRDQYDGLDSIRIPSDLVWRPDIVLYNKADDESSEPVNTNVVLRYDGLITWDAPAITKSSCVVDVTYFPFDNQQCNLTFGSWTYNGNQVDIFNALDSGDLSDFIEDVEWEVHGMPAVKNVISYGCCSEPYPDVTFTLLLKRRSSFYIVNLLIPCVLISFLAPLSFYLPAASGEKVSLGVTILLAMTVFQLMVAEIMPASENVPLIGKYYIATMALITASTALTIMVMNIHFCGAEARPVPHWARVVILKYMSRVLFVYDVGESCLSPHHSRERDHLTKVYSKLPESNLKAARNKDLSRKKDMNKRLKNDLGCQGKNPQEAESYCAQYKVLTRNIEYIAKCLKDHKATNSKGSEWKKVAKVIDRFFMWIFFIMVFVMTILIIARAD
T2 sequence (Q9GZZ6 whole entry): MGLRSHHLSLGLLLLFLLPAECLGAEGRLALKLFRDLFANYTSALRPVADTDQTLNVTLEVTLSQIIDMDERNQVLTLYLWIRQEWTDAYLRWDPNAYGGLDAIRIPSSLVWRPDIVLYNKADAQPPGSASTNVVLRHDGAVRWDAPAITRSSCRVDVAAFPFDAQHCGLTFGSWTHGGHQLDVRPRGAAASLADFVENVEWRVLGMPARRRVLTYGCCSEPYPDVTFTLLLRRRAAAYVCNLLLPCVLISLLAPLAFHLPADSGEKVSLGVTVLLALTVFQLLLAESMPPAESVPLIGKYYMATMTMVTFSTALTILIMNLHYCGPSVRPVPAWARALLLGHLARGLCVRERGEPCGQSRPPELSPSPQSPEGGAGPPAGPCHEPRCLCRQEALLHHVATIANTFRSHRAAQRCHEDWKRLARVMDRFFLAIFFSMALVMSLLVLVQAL

The IC50 is the midpoint of a concentration-inhibition curve. `NCC(=O)N[C@H]1CSSC[C@@H]2NC(=O)[C@H](CCCN=C(N)N)NC(=O)[C@@H]3CCCN3C(=O)[C@H](CC(=O)O)NC(=O)[C@H](CO)NC(=O)[C@H](CSSC[C@@H](C(=O)N[C@@H](CCCN=C(N)N)C(N)=O)NC(=O)[C@H](CCCN=C(N)N)NC(=O)[C@H](Cc3ccc(O)cc3)NC(=O)[C@H](CCCN=C(N)N)NC2=O)NC1=O`: the values for the IC50 in test [1] and in [2] were 4.7 µM and 5.2 nM, respectively.

Broadly, the inhibition is the drop in the measured response relative to a control, in per cent. `CC[C@H](C)[C@@H]1NC(=O)[C@@H]2CCCN2C(=O)[C@H](CO)NC(=O)[C@H](CCSC)NC(=O)[C@H](C)NC(=O)[C@H](CO)NC(=O)[C@@H]2CSSC[C@H](NC(=O)CN)C(=O)N[C@@H](CSSC[C@@H](C(N)=O)NC1=O)C(=O)N[C@@H](CO)C(=O)N[C@@H](Cc1cnc[nH]1)C(=O)N1CCC[C@H]1C(=O)N[C@@H](C(C)C)C(=O)N2`: the inhibition result in [3], in test [4], in test [6] and in test [7] was “inactive” each time. In addition, in [5], the inhibition entry is “Active”.

In the case of `C[C@@H]1NC(=O)[C@@H]2CSSC[C@H](NC(=O)CN)C(=O)N[C@@H](CSSC[C@@H](C(N)=O)NC(=O)[C@H](CCCNC(=N)N)NC(=O)[C@H](Cc3c[nH]c4ccccc34)NC1=O)C(=O)N[C@@H](CO)C(=O)N[C@@H](CC(=O)O)C(=O)N1CCC[C@H]1C(=O)N[C@@H](CCCNC(=N)N)C(=O)N2`, the IC50 in [8] was determined as 2000 nM; in test [9], 595 nM; in test [10] it was 3.39 µM; in test [11], 41 nM.

In the case of `CC[C@H](C)[C@@H]1NC(=O)[C@H](Cc2cnc[nH]2)NC(=O)[C@@H]2CCCN2C(=O)[C@H](CC(N)=O)NC(=O)[C@H](CC(N)=O)NC(=O)[C@H](C(C)C)NC(=O)[C@H](CC(N)=O)NC(=O)[C@@H]2CSSC[C@H](NC(=O)CN)C(=O)N[C@@H](CSSC[C@@H](C(N)=O)NC1=O)C(=O)N[C@@H](CO)C(=O)N[C@@H](Cc1cnc[nH]1)C(=O)N1CCC[C@H]1C(=O)N[C@@H](C)C(=O)N2` (HELM PEPTIDE1{G.C.C.S.H.P.A.C.N.V.N.N.P.H.I.C.[am]}$PEPTIDE1,PEPTIDE1,2:R3-8:R3|PEPTIDE1,PEPTIDE1,3:R3-16:R3$$$V2.0), the inhibition entry in test [12], in [14] and in [17] was “Active” in each case. The results for the IC50 in [13], in [16] and in test [18] were 103 nM, 33 nM and 97 nM, respectively. Further, the inhibition in test [15] came to 22%.

Regarding `CC(C)C[C@@H]1NC(=O)[C@H](CCC(=O)O)NC(=O)[C@@H]2CCCN2C(=O)[C@H](Cc2cnc[nH]2)NC(=O)[C@H](CC(N)=O)NC(=O)[C@H](C(C)C)NC(=O)[C@H](CO)NC(=O)[C@@H]2CSSC[C@H](NC(=O)CN)C(=O)N[C@@H](CSSC[C@@H](C(N)=O)NC1=O)C(=O)N[C@@H](CO)C(=O)N[C@@H](Cc1cnc[nH]1)C(=O)N1CCC[C@H]1C(=O)N[C@@H](C)C(=O)N2` (HELM PEPTIDE1{G.C.C.S.H.P.A.C.S.V.N.H.P.E.L.C.[am]}$PEPTIDE1,PEPTIDE1,2:R3-8:R3|PEPTIDE1,PEPTIDE1,3:R3-16:R3$$$V2.0), the 50% inhibitory concentration (IC50) in [19] is 6.9 nM.

For `C[C@@H]1NC(=O)[C@H](Cc2ccccc2)NC(=O)[C@@H]2CSSC[C@@H](NC(=O)CN)C(=O)N[C@@H](CSSC[C@@H](C(N)=O)NC(=O)[C@H](CC(=O)O)NC(=O)[C@@H]3CCCN3C(=O)[C@H](CC(N)=O)NC(=O)[C@H]([C@@H](C)O)NC1=O)C(=O)N[C@@H](CO)C(=O)N[C@@H](Cc1ccc(O)cc1)C(=O)N1CCC[C@H]1C(=O)N1CCC[C@H]1C(=O)N2`, the half-maximal inhibitory concentration (IC50) in test [20] stood at 750 nM.

Take `[H][C@@]12CCCN1C(=O)[C@H](Cc1cnc[nH]1)NC(=O)[C@H](CCCCN)NC(=O)[C@H](CC(N)=O)NC(=O)[C@H](CCCNC(=N)N)NC(=O)[C@]1([H])CSSC[C@H](NC(=O)CN)C(=O)N[C@@]([H])(CSSC[C@@H](C(N)=O)NC(=O)[C@H](CC(C)C)NC(=O)[C@H](CC(=O)O)NC2=O)C(=O)N[C@@H](CO)C(=O)N[C@@H](CC(=O)O)C(=O)N2CCC[C@@]2([H])C(=O)N2CCC[C@@]2([H])C(=O)N1` (HELM PEPTIDE1{G.C.C.S.D.P.P.C.R.N.K.H.P.D.L.C.[am]}$PEPTIDE1,PEPTIDE1,2:R3-8:R3|PEPTIDE1,PEPTIDE1,3:R3-16:R3$$$V2.0): the IC50 in test [21] was 28.4 nM.

With `[H][C@@]12CCCN1C(=O)[C@]1([H])CCCN1C(=O)[C@]([H])([C@@H](C)O)NC(=O)[C@H](CO)NC(=O)[C@]1([H])CSSC[C@@H](C(N)=O)NC(=O)[C@H](Cc3ccc(O)cc3)NC(=O)[C@H](CC(C)C)NC(=O)[C@H](C(C)C)NC(=O)[C@H](C)NC(=O)[C@]([H])(CSSC[C@H](NC(=O)CN)C(=O)N1)NC2=O` (HELM PEPTIDE1{G.C.C.S.T.P.P.C.A.V.L.Y.C.[am]}$PEPTIDE1,PEPTIDE1,2:R3-8:R3|PEPTIDE1,PEPTIDE1,3:R3-13:R3$$$V2.0), the IC50 in [22] is 69.9 nM; in test [23] it was 272 nM; in test [24] it was 0.26 nM; in test [25], 27.7 nM; in [26], 800 nM; in test [27], 121 nM. Moreover, the IC50 in test [28] amounted to 5.72 nM; in [29], 1.54 nM.

The values above are taken from ChEMBL document CHEMBL3102714 (J Med Chem, 2013).
